Key:
BEAS2B cells = test: Poly I:C-induced ICAM-1 expression in BEAS2B cells; assay type: cell-based; conditions: Homo sapiens, BEAS-2B, read-out: PolyIC/ICAM1 IC50 (BEAS2B)
Protocol: Poly I:C was used in these studies as a simple, RNA virus mimic. Poly I:C-Oligofectamine mixture (1 μg/mL Poly I:C, ±2% Oligofectamine, 25 μL; Invivogen Ltd., San Diego, Calif., and Invitrogen, Carlsbad, Calif., respectively) was transfected into BEAS2B cells (human bronchial epithelial cells, ATCC). Cells were pre-incubated with final concentrations of test compounds for 2 hr and the level of ICAM-1 expression on the cell surface was determined by cell-based ELISA. […]
The cells were washed with PBS-Tween (3×200 μL) and incubated with the secondary antibody (100 μL; HRP-conjugated anti-rabbit IgG, Dako Ltd., Glostrup, Denmark). […] The ICAM-1 signal was detected by reading […] the absorbance at 450 nm against a reference wavelength of 655 nm using a spectrophotometer. The cells were then washed with PBS-Tween (3×200 μL) and total cell numbers in each well were determined by reading absorbance at 595 nm after Crystal Violet staining (50 μL of a 2% solution in PBS) and elution by 1% SDS solution (100 μL) in distilled water. The measured OD 450-655 readings were corrected for cell number by dividing with the OD595 reading in each well. The inhibition of ICAM-1 expression was calculated at each concentration of test compound by comparison with vehicle control.

[1] = system: Differentiated U937 cells; test: Cell viability: MTT assay; assay type: cell-based, human; conditions: 1 μg/mL
Protocol: Differentiated U937 cells were pre-incubated with each test compound (final concentration 1 μg/mL or 10 μg/mL in 200 μL media indicated below) under two protocols: the first for 4 hr in 5% FCS RPMI1640 media and the second in 10% FCS RPMI1640 media for 24 h. The supernatant was replaced with new media (200 μL) and MTT stock solution (10 μL, 5 mg/mL) was added to each well. After incubation for 1 hr the media were removed, DMSO (200 μL) was added to each well and the plates were shaken lightly for 1 hr prior to reading the absorbance at 550 nm. The percentage loss of cell viability was calculated for each well relative to vehicle (0.5% DMSO) treatment. Consequently an apparent increase in cell viability for drug treatment relative to vehicle is tabulated as a negative percentage.

[2] = system: LPS-induced neutrophil accumulation; test: LPS-induced neutrophil accumulation in mice; assay type: in vivo, Balb/c mice
Protocol: […] At T=0, mice were placed into an exposure chamber and exposed to LPS (7.0 mL, 0.5 mg/mL solution in PBS) for 30 min). After a further 8 hr the animals were anesthetized, their tracheas cannulated and BALF extracted by infusing and then withdrawing from their lungs 1.0 mL of PBS via the tracheal catheter. Total and differential white cell counts in the BALF samples were measured using a Neubaur haemocytometer. Cytospin smears of the BALF samples were prepared by centrifugation at 200 rpm for 5 min at RT and stained using a DiffQuik stain system (Dade Behring). Cells were counted using oil immersion microscopy. Data for neutrophil numbers in BAL are shown as mean±S.E.M. (standard error of the mean). The percentage inhibition of neutrophil accumulation was calculated for each treatment relative to vehicle treatment.

Cigarette Smoke Model = test: Cigarette smoke model; assay type: in vivo, A/J mice
Protocol: A/J mice (males, 5 weeks old) were exposed to cigarette smoke (4% cigarette smoke, diluted with air) for 30 min/day for 11 days using a Tobacco Smoke Inhalation Experiment System for small animals (Model SIS-CS; Sibata Scientific Technology, Tokyo, Japan). […] At 12 hr after the last dosing, each of the animals was anesthetized, the trachea cannulated and bronchoalveolar lavage fluid (BALF) was collected. The numbers of alveolar macrophages and neutrophils were determined by FACS analysis (EPICS® ALTRA II, Beckman Coulter, Inc., Fullerton, Calif., USA) using anti-mouse MOMA2 antibody (macrophage) or anti-mouse 7/4 antibody (neutrophil). BALF was centrifuged and the supernatant was collected. The level of keratinocyte chemoattractant (KC; CXCL1) in BALF was quantitated using a Quentikine® mouse KC ELISA kit (R&D systems, Inc., Minneapolis, Minn., USA).

Dynamic vapour sorption = assay type: physicochemical; conditions: form B micronized
Protocol: Plots were obtained using a Surface Measurement Systems dynamic vapor sorption model DVS-1 using about 10 mg of the sample. The weight change was recorded with respect to atmospheric humidity at 25° C. and was determined using the following parameters: drying: 60 min under dry nitrogen; equilibrium: 60 min/step; data interval: 0.05% or 2.0 min. The relative humidity [RH %] measurement points were as follows:
The DVS isotherm plot for the micronized reference sample is illustrated in FIG. 4 and the DVS change in mass plot for the micronized reference sample is illustrated in FIG. 5. […] The product adsorbed up to 0.4% moisture depending on the atmospheric humidity.

[3] = 0.05 mg/mL intra tracheal, 2 hr pre-dose

SMILES: Cc1ccc(-n2nc(C(C)(C)C)cc2NC(=O)Nc2ccc(Oc3ccnc(Nc4ccccc4)n3)c3ccccc23)cc1 [Compound (I), 1-(3-(tert-Butyl)-1-(p-tolyl)-1H-pyrazol-5-yl)-3-(4-((2-(phenylamino)pyrimidin-4-yl)oxy)naphthalen-1-yl)urea]
- IC50 (BEAS2B cells): 10.2 nM
- MTT Assay Cell viability in d-U937 Cells ([1]; 4 h): −ve (−ve and +ve indicate the value is below and above respectively, the no significant effect threshold defined as 30% inhibition at 1 μg/mL at the time point indicated.)
- MTT Assay Cell viability in d-U937 Cells ([1]; 24 h): −ve (−ve and +ve indicate the value is below and above respectively, the no significant effect threshold defined as 30% inhibition at 1 μg/mL at the time point indicated.)
- % inhibition of neutrophil accumulation [2, 3]: 18%
- Neutrophil numbers in BALF [2, 3]: 15.6 ± 2.1 ×10^5/mL
- % inhibition of neutrophil accumulation ([2]; 0.2 mg/mL, 2 hr pre-dose): 48%
- Neutrophil numbers in BALF ([2]; 0.2 mg/mL, 2 hr pre-dose): 9.8 ± 1.6 ×10^5/mL
- % inhibition of neutrophil accumulation ([2]; 1.0 mg/mL, 2 hr pre-dose): 77%
- Neutrophil numbers in BALF ([2]; 1.0 mg/mL, 2 hr pre-dose): 4.4 ± 0.89 ×10^5/mL
- % inhibition of neutrophil accumulation ([2]; 1.0 mg/mL, 8 hr pre-dose): 48%
- Neutrophil numbers in BALF ([2]; 1.0 mg/mL, 8 hr pre-dose): 9.9 ± 1.8 ×10^5/mL
- % inhibition of neutrophil accumulation ([2]; 1.0 mg/mL, 12 hr pre-dose): 4%
- Neutrophil numbers in BALF ([2]; 1.0 mg/mL, 12 hr pre-dose): 18.3 ± 2.3 ×10^5/mL
- duration of action (time course experiment) ([2]; mice): long duration of action
- effect on LPS-induced neutrophil accumulation ([2]; mice): dose dependent inhibition
- CXCL1 in BALF % inhibition (Cigarette Smoke Model; 0.32 μg/mL): 0%
- Macrophage % inhibition (Cigarette Smoke Model; 0.32 μg/mL): 11%
- Neutrophil % inhibition (Cigarette Smoke Model; 0.32 μg/mL): 12%
- Neutrophil cell numbers in BALF (Cigarette Smoke Model; 0.32 μg/mL): 12.4 ± 0.32 × 10^4/mL
- Macrophage cell numbers in BALF (Cigarette Smoke Model; 0.32 μg/mL intra-nasal, tobacco smoke): 13.3 ± 0.20 × 10^4/mL
- CXCL1 in BALF (Cigarette Smoke Model; 0.32 μg/mL, tobacco smoke): 13.6 ± 1.69 pg/mL
- CXCL1 in BALF (Cigarette Smoke Model; 1.6 μg/mL): 12.2 ± 0.96 pg/mL
- CXCL1 in BALF % inhibition (Cigarette Smoke Model; 1.6 μg/mL): 26%
- Macrophage % inhibition (Cigarette Smoke Model; 1.6 μg/mL): 28%
- Macrophage cell numbers in BALF (Cigarette Smoke Model; 1.6 μg/mL): 11.6 ± 0.42 × 10^4/mL
- Neutrophil % inhibition (Cigarette Smoke Model; 1.6 μg/mL): 29%
- Neutrophil cell numbers in BALF (Cigarette Smoke Model; 1.6 μg/mL): 10.5 ± 0.06 × 10^4/mL
- CXCL1 in BALF (Cigarette Smoke Model; 8.0 μg/mL): 11.4 ± 0.15 pg/mL
- CXCL1 in BALF % inhibition (Cigarette Smoke Model; 8.0 μg/mL): 41%
- Macrophage % inhibition (Cigarette Smoke Model; 8.0 μg/mL): 43%
- Macrophage cell numbers in BALF (Cigarette Smoke Model; 8.0 μg/mL): 10.1 ± 0.42 × 10^4/mL
- Neutrophil % inhibition (Cigarette Smoke Model; 8.0 μg/mL): 41%
- Neutrophil cell numbers in BALF (Cigarette Smoke Model; 8.0 μg/mL): 9.1 ± 0.28 × 10^4/mL
- CXCL1 in BALF (Cigarette Smoke Model; 40 μg/mL): 9.5 ± 0.84 pg/mL
- CXCL1 in BALF % inhibition (Cigarette Smoke Model; 40 μg/mL): 76%
- Macrophage % inhibition (Cigarette Smoke Model; 40 μg/mL): 64%
- Macrophage cell numbers in BALF (Cigarette Smoke Model; 40 μg/mL): 7.9 ± 0.20 × 10^4/mL
- Neutrophil % inhibition (Cigarette Smoke Model; 40 μg/mL): 52%
- Neutrophil cell numbers in BALF (Cigarette Smoke Model; 40 μg/mL): 7.9 ± 0.34 × 10^4/mL
- effect on cigarette smoke induced CXCL1 (KC) production in BALF (Cigarette Smoke Model; mice): inhibited
- effect on macrophage and neutrophil accumulation in BALF induced by cigarette smoke (Cigarette Smoke Model; mice): dose-dependent inhibition
- hygroscopic behavior (DVS) (Dynamic vapour sorption): no hygroscopic behavior
- moisture adsorbed (DVS) (Dynamic vapour sorption; depending on atmospheric humidity, 25° C.): up to 0.4%
